EP0197829A1, “5H-pyrido[3',4':4,5]pyrrolo[3,2-c]pyridine derivatives, process for their preparation and their antitunour activity” (SANOFI, priority 1985, dated 1986)
Like-named read-outs stand apart in the source and are kept apart here.

Key:
[1] = system: lignée tumorale leucémie L 1210; test: In vitro cytotoxicity on L 1210 leukemia cell culture; format: cell-based; conditions: concentration inhibiting cell proliferation by 50 p. 100, after 48 h contact; read-out: ID 50 (the source's name)
Procedure: 1) In vitro : (PAOLETTI et al., Chem. Biol. Interaction, 1979, 25, 45-58).
L'activité cytotoxique des composés de l'invention a été évaluée par des essais in vitro. Ces essais consistent à ajouter des concentrations croissantes du composé à tester à une culture cellulaire de la lignée tumorale leucémie L 1210 en phase exponentielle de croissance. Les cellules sont incubées à 37°C dans une étuve à C02 et comptées toutes les 24 heures. Le calcul de l'ID 50 (concentration du produit exprimée en micromole 1^-1 qui inhibe la prolifération cellulaire à 50 p. 100) est effectué après 48 heures de contact. Ainsi déterminées, les ID 50 des composés de l'invention sont rassemblées dans le tableau I ci-après : […]

souris BDF1 saines = test: in vivo; conditions: mouse, ip, 200 mg/kg
Procedure: Ainsi, l'administration à des souris hybrides CDF1 saines, en une injection unique par la voie intrapéritonéale, de doses croissantes des composés à tester (5 mg, 10 mg, 20 mg, 40 mg/kg) a permis de constater que, à ces doses, les produits étaient parfaitement tolérés puisque le taux de survivants était de 100 p. 100.
Dans les mêmes conditions, administrés à des souris BDF1 saines, les taux de survivants étaient de 100 p. 100 jusqu'à 100 mg/kg pour les dérivés 1, 3 et 9 et jusqu'à 200 mg/kg pour les dérivés 2 et 8.

leucémie P 388 = format: in vivo, souris hybrides CDF1; conditions: for Survivants: at day J 40
From the text: L'activité antitumorale a été testée in vivo sur différentes tumeurs selon le protocole général suivant : Toutes les souris mâles ou femelles sont inoculées par voie intrapéritonéale au jour Jo avec une quantité déterminée de cellules tumorales viables, variable selon la tumeur.
Elles sont ensuite réparties en différents lots. Chaque lot correspondant aux animaux traités par le produit à tester à une dose déterminée est composé de lO souris. Dans ce cas, le produit à tester est dissous dans l'eau distillée et il est administré, pendant n jours (J1-Jn) variables selon le protocole choisi, par voie intrapéritonéale à raison de 0,1 ml par lO g de poids des souris traitées, les doses du produit administré étant précisées dans les tableaux ci-dessous.
Le lot "Contrôle négatif", correspondant aux animaux qui ne sont pas traités par un produit, comprend 2 √N animaux, N étant égal au nombre total de souris traitées par un produit.
Enfin, tous lés essais sont conduits parallèlement à l'étude d'un lot appelé "Contrôle positif" de 10 animaux qui est traité par une molécule active, variable selon le protocole choisi, dans les mêmes conditions que les lots traités par le produit à tester, afin de valider l'essai.
L'activité antitumorale est évaluée en considérant l'augmentation du temps de survie des animaux traités par rapport à celui des animaux du lot "Contrôle négatif" selon la formule : • Jour médian de survie des animaux traités à une T/C = dose donnée de produit x 100 • Jour médian de survie des animaux "Contrôle négatif"
Un composé est considéré comme étant actif lorsque la valeur du rapport T/C est égale ou supérieure à 125 % selon le protocole retenu. Il est toxique lorsque cette valeur est égale ou inférieure à 85 %. Le produit est également considéré comme toxique lorsque la variation pondérale, exprimée en grammes et calculée par la formule : Poids moyen du lot mesuré au jour 5 - poids moyen du même lot au jour 1, est égale ou inférieure à -4g . a) Test de la leucémie P 388 (GERAN et al., Cancer Chemother, 1972, 2, 07-57).
Les essais sont effectués avec des souris hybrides CDF1 inoculées par voie intrapéritonéale avec […] leucémiques de la lignée P 388. Le composé à tester est administré pendant 5 jours (Jl-J5). Le contrôle positif du test est le 5-fluorouracile qui est administré dans les mêmes conditions.
[…] Un composé est considéré comme étant actif lorsque le rapport T/C est supérieur à 127 %.

“diméthyl-4,5[(éthylamino-3 propyl-1)amino]-1 5-H pyrido[3',4':4,5]pyrrolo[3,2-c]pyridine [Dérivé N° 8]” was tested, and the IC50 [1] was 3.8 µM, the taux de survivants (souris BDF1 saines) was 100 p. 100 and the “Jour médian de survie” value (leucémie P 388; 5 mg/kg i.p. J1-J5) was 13,4. The T/C % (leucémie P 388; 5 mg/kg i.p. J1-J5) was 116%, the Survivants (leucémie P 388; 5 mg/kg i.p. J1-J5) was 0 and the “Jour médian de survie” value (leucémie P 388; 10 mg/kg i.p. J1-J5) was 14,62. For the same substance, the T/C % (leucémie P 388; 10 mg/kg i.p. J1-J5) was 127%, the Survivants (leucémie P 388; 10 mg/kg i.p. J1-J5) was 0 and the “Jour médian de survie” value (leucémie P 388; 20 mg/kg i.p. J1-J5) was 16,75. The T/C % (leucémie P 388; 20 mg/kg i.p. J1-J5) was 145%, the Survivants (leucémie P 388; 20 mg/kg i.p. J1-J5) was 0 and the “Jour médian de survie” value (leucémie P 388; 40 mg/kg i.p. J1-J5) was 16,0. For the same substance, the T/C % (leucémie P 388; 40 mg/kg i.p. J1-J5) was 138%, the Survivants (leucémie P 388; 40 mg/kg i.p. J1-J5) was 0 and the “Jour médian de survie” value (leucémie P 388; 80 mg/kg i.p. J1-J5) was 17,25. It also gave a T/C % (leucémie P 388; 80 mg/kg i.p. J1-J5) of 149% and a Survivants (leucémie P 388; 80 mg/kg i.p. J1-J5) of 0.
